Measured values: US20140314788A1, “MODULATION OF HISTONE DEACETYLASES FOR THE TREATMENT OF METABOLIC DISEASE, METHODS AND COMPOSITIONS RELATED THERETO” (Salk Institute for Biological Studies, priority 2010, published 2014)
“Also recorded” adds a separate entry of the source.

Columns and labels:
HDAC4/5/7 [1] = test: Immunoblot of HDAC phosphorylation in primary hepatocytes treated with A769662; format: cell-based, mouse; details: 1 hr, particularly on the Ser498 sites
Experimental: (F) Lysates from primary hepatocytes treated with either AMPK agonist A769662 or Vehicle (DMSO) for 1 hr and immunoblotted with indicated antibodies.
(§1) Primary hepatocytes were derived from C57BL/6J mice and maintained in serum free Media 199. Cells were transduced 24 hrs after harvesting. Knock-down and over-expression studies in hepatocytes were done by infecting cells at 5 PFUs/cell. All adenoviral shRNA knockdowns were carried out for 72 hrs. For subcellular fractionation, cells were treated as indicated, washed 3 times with PBS and lysed utilizing NE-PER Cell Fractionation Kit (Pierce). Primary hepatocytes were treated with 10 uM Forksolin (Sigma) and 100 nM Glucagon (Novo Nordisk), 100 nM insulin (Lilly) at indicated times.

G6PAse and PEPCK mRNA = test: qPCR of G6PAse and PEPCK mRNA in primary hepatocytes pre-treated with MC1568; format: cell-based, mouse; details: 5 uM MC1568 for 14 hours, then 10 uM Forskolin or 100 nM Glucagon for 4 hrs; normalized to cyclophilin
Experimental: (§2) Blood glucose was measured on mice fasted for 22 hours (4 hrs following the final treatment).
as §1
mRNA from primary hepatocytes was isolated using RNAeasy (Qiagen) kit and reverse transcribed using SuperScript II Reverse Transcriptase. Three samples/mice were used per condition and qPCR was done in technical triplicate for each sample. qPCR reaction was carried out using Syber GreenER (Invitrogen). All qPCR results are representative of 3 separate experiments.

db/db mice = test: Blood glucose in db/db mice treated with MC1568; format: in vivo, mouse; details: 50 mg/kg intraperitoneally once a day for 4 days, fasted for 22 hours (4 hrs after final treatment)
Experimental: as §2

HDAC4/5/7 [2] = test: Immunoblot of HDAC phosphorylation in livers of metformin-treated mice; format: in vivo; details: mouse liver, 250 mg/kg metformin intraperitoneally for 1 h
Experimental: (D) Immunoblot of lysates from murine livers from LKB1+/+ or LKB1lox/lox mice deleted for hepatic LKB1 and treated with either 250 mg/kg metformin, or saline alone for 1 h.
To induce Cre-mediated deletion in Albumin-creERT2 mice, mice were intraperitoneally injected with 1 mg/mouse of Tamoxifen (SIGMA) for 5 consecutive days. Ad-Cre mediated deletion in LBK1lox/lox mice was done by tail vein injection of 1×10^9 PFUs/mouse in 8 week old males (FIG. 1D). […] For metformin experiments, mice injected intraperitoneally with 250 mg/kg Metformin in 0.9% saline for 1 h.

HDACs4/5 = test: Immunoblot of HDAC phosphorylation in HepG2 or Huh7 cells treated with phenformin; format: cell-based, human; details: 2 mM Phenformin for 1 hr
Experimental: (C) Lysates of HepG2 or Huh7 cells transfected with indicated siRNA pools and treated with either 2 mM Phenformin or vehicle for 1 hr and subjected to immunoblotting.
(§3) HEK293T, Huh7, HepG2, C2C12, and U2OS cells were obtained from ATCC. RNAi SMARTpool human LKB1 (Dharmacon) or RNAi negative control (Invitrogen) used at 20 nM final concentration and transfected using RNAiMAX transfection reagent (Invitrogen). Knockdowns were carried out for 72 hrs. Cells were treated with 1 uM TSA or 10 mM NAM (Sigma), Cells were treated with 2 mM AICAR (Toronto Research Chemicals) or 2 mM Phenformin (Sigma).

FOXO1 = FOXO1 acetylation immunoblot in HEK293T cells treated with TSA; format: cell-based; details: HEK293T cells with Myc-Foxo1 WT, 1 uM TSA for 2 h
Experimental: (C) HEK293T cells were transfected with Myc-Foxo1 WT construct and cells were treated with 1 uM TSA and/or 10 mM NAM for 2 h. Cell lysates were immunoblotted with indicated antibodies.
as §3

[3] = tested on: endogenous Class IIa HDACs; test: Subcellular fractionation of primary hepatocytes; format: cell-based, mouse; details: 100 nM Glucagon or 10 uM Forskolin for 1 h
HDAC4/5/7 [4] = test: Immunoblot of HDAC phosphorylation in primary mouse hepatocytes treated with glucagon or forskolin; format: cell-based; details: 100 nM glucagon or 10 uM forskolin
GFP-HDAC5 = GFP-HDAC5 nuclear translocation in primary mouse hepatocytes (confocal microscopy); format: cell-based; details: 100 nM glucagon
HDAC4/5/7 [5] = test: Immunoblot of HDAC phosphorylation in liver lysates of glucagon-injected mice; format: in vivo, mouse; details: mice starved 6 h, glucagon for 45 minutes
Experimental: (A) Mice were starved for 6 h and then treated with saline, glucagon (Gluca) for 45 minutes, or refed for 3 h. Liver lysates were immunoblotted with indicated antibodies.

Q: With `N#Cc1c(O)c2c(-c3ccc(-c4ccccc4O)cc3)csc2[nH]c1=O` [A769662] as the compound, how does the HDAC4/5/7 phosphorylation (HDAC4/5/7 [1]) read?
A: increased HDAC4/5/7 phosphorylation

Q: What does the source list for `Cn1c(/C=C/C(=O)NO)ccc1/C=C/C(=O)c1cccc(F)c1` [MC1568]?
A: expression of G6PAse (mRNA, qPCR) (G6PAse and PEPCK mRNA): suppresses the expression; also recorded: suppression; expression of PEPCK (mRNA, qPCR) (G6PAse and PEPCK mRNA): suppresses the expression; also recorded: suppression; blood glucose (db/db mice): lowers blood glucose; also recorded: suppression

Q: With `CN(C)C(=N)N=C(N)N` [metformin] as the compound, how does the “Phospho-Ser498 in HDAC4/5/7” value (HDAC4/5/7 [2]) read?
A: increase in Phospho-Ser498

Q: With `[H]/N=C(/N)N/C(=N/[H])NCCc1ccccc1` [phenformin] as the compound, how does the “phosphorylation on Ser498 of HDACs4/5” value (HDACs4/5) read?
A: LKB1-dependent increase in phosphorylation

Q: How did the FOXO1 acetylation (FOXO1) turn out when `CC(/C=C/C(=O)NO)=C\[C@@H](C)C(=O)c1ccc(N(C)C)cc1` [trichostatin A] was run?
A: increased FOXO1 acetylation

Q: glucagon was tested. Which “localization of endogenous Class IIa HDACs” value [3] did it give?
A: translocate fully into the nucleus

Q: And the “endogenous HDAC4/5/7 phosphorylation” value (HDAC4/5/7 [4])?
A: rapid loss of endogenous HDAC4/5/7 phosphorylation

Q: What about the “time to full nuclear translocation of GFP-tagged HDAC5” value (GFP-HDAC5) of the same compound?
A: ≤ 30 min

Q: And the “HDAC4/5/7 phosphorylation in liver” value (HDAC4/5/7 [5])?
A: reduced HDAC4/5/7 phosphorylation
